Measurements reported in ChEMBL document CHEMBL3627599, “The antioxidant properties of salicylate derivatives: A possible new mechanism of anti-inflammatory activity” (Bioorg Med Chem Lett, 2015).

What was measured:
[1] = Antioxidant activity assessed as DPPH free radical scavenging activity at 0.01 to 1 mM after 30 mins; format: physicochemical; conditions: 0.5 h, 1000 µM
[2] = Antioxidant activity assessed as DPPH free radical scavenging activity at 1 mM after 30 mins; format: physicochemical; conditions: 0.5 h, 1000 µM

SMILES	Activity [1]	Activity [2]
NC(=O)c1cc(O)ccc1O	Active	
O=C(O)c1ccccc1O [SALICYLIC ACID]	Active	
Cc1ccc(O)c(C(=O)O)c1	Active	
COC(=O)c1cc(O)ccc1O [METHYL 2,5-DIHYDROXYBENZOATE]	Active	
CC(=O)Nc1ccc(O)c(C(N)=O)c1		Active
O=C(O)c1cc(O)ccc1O [GENTISIC ACID]	Active	
Nc1ccc(O)c(C(=O)O)c1 [MESALAMINE]	Active	
O=C(O)c1cc(Cl)ccc1O [5-CHLOROSALICYLIC ACID]	Active	
COc1ccc(O)c(C(=O)O)c1	Active	
O=C(O)c1cc([N+](=O)[O-])ccc1O	Active	
